Measurements reported in patent US20260191200A1, “COMPOUNDS AND COMPOSITIONS HAVING KNOCK-DOWN OR BLOOD FEED INHIBITION ACTIVITY AGAINST INSECT PESTS” (priority 2015, published 2026).

What was measured:
Type in all cases: in vivo
Aedes aegypti = assay: twelve well tissue culture plate deposit test, knockdown (B23); conditions: 1 h, read-out: Aedes aegypti 1 hour % KD
Method: (§1) The individual wells of a twelve (12) well tissue culture plates were treated with 100 μl of an ethanol solution containing a test compound at a defined concentration. Once the deposits were dry, five non-blood fed adult female Aedes aegypti or Anopheles stephensi (between two to five day old) were added to each well, and sustained with a 10% sucrose solution in a cotton wool plug. Assessment of the knockdown after 1 hour was carried out. Where multiple replicates of a treatment have been undertaken, the mean of those replicates is reported.

Anopheles stephensi [1] = assay: as above; conditions: 1 h, read-out: Anopheles stephensi 1 hour % KD
Method: as §1

[2] = tested on: Anopheles coluzzii VK7 lab strain; assay: WHOPES tunnel test with live guinea pig baits, Burkina Faso (B17); conditions: Table B17; for Blood fed: number of mosquitoes
Method: (§2) The following tests are based on the “WHOPES tunnel tests” (described at http://apps.who.int/iris/bitstream/10665/80270/1/9789241505277_eng.pdf)
(§3) For examples B16-B20, the WHOPES tunnel test procedure was followed with live guniea pig baits wherein B16-B18 were conduced in Burkina Faso with Anopheles gambiae Kisumu, Anopheles coluzzii VK7 lab strain and Anopheles gambiae s.l. VK field strain, respectively; and B19-B20 were conducted in Cote d′Ivoire with Anopheles gambiae Kisumu and Anopheles gambiae Tiassale field strain, respectively.
(§4) The commercial standard Olyset nets used in certain examples are 2% w/w permethrin (approx. 1000 mg/m2, although not all of that is available on the surface at any one time, as a good proportion is in the polymer).
(§5) All tests were done under standardised laboratory controlled conditions (27° C.+2° C. under subdued light). The tunnel apparatus was a 60×30×30 cm glass case open at each end and the floor was lined with wet blue roll in order to maintain humidity. A 30×30×30 cm cage, covered in untreated netting, was placed at the release end. The test nets were cut to 25×25 cm squares and fitted into cardboard frames that allow a 20×20 cm area to be exposed. Nine holes, 1 cm in diameter, were made in the netting in the pattern specified in the WHOPES test. The frames were then fitted into the tunnel one third of the way down its length. A Hemotek device, filled with blood and kept constant at 37° C. to mimic a human host, was placed in the smaller area of the glass tunnel behind the test netting, and the end of the tunnel closed with a netting screen. A human sat at the Hemotek end of the tunnels for the duration of the test. At the start of the test, 100 female mosquitoes (non-blood fed, aged 5-8 days) were introduced into the cage. Mosquitoes are free to fly in the tunnel but have to make contact with the piece of netting and locate the holes in it before passing through to reach the bait.
(§6) After 7 hours the mosquitoes were counted in each section of the tunnel. The number of mosquitoes knocked down and blood fed were recorded. Blood-feeding inhibition was assessed by comparing the proportion of blood-fed females (alive or dead) in treated and control tests. Four tunnels were run simultaneously each day, with one control containing untreated netting included with all runs. Three replicates were carried out per treatment. In case of multiple tests, the mean value is reported.

Anopheles gambiae Kisumu [3] = assay: WHOPES tunnel test with live guinea pig baits, Cote d′Ivoire (B19); conditions: Table B19; for Blood fed: number of mosquitoes
Method: as §2, §3, §4, §5, §6

Anopheles stephensi [4] = assay: WHOPES tunnel test with Hemotek membrane feeding device (B11-B14)
Method: as §2
(§7) For examples B11-B15 the WHOPES tunnel test procedure was followed, except that live guniea pig baits were replaced with a Hemotek membrane feeding device, filled with blood and kept constant at 37° C. to mimic a human host.
For examples B11-B14, the tunnel test was conducted with Anopheles stephensi;
as §5, §6

Anopheles gambiae Kisumu [5] = assay: WHOPES tunnel test with live guinea pig baits, Burkina Faso (B16); conditions: Table B16; for Blood fed: number of mosquitoes
Method: as §2, §3, §4, §5, §6

[6] = tested on: Anopheles gambiae Tiassale field strain; assay: WHOPES tunnel test with live guinea pig baits, Cote d′Ivoire (B20); conditions: Table B20; for Blood fed: number of mosquitoes
Method: as §2, §3, §4, §5, §6

[7] = tested on: Anopheles gambiae s.l. VK field strain; assay: WHOPES tunnel test with live guinea pig baits, Burkina Faso (B18); conditions: Table B18; for Blood fed: number of mosquitoes
Method: as §2, §3, §4, §5, §6

[8] = tested on: Anopheles gambiae, resistant strain AKRON; assay: WHOPES tunnel test with Hemotek membrane feeding device (B15); conditions: Table B15
Method: as §2, §7
For example B15, the tunnel test was conducted with Anopheles gambiae, resistant strain AKRON.
as §4
All tests were done under standardised laboratory controlled conditions (27° C.+2° C. under subdued light). The tunnel apparatus was a 60×30×30 cm glass case open at each end and the floor was lined with wet blue roll in order to maintain humidity. A 30×30×30 cm cage, covered in untreated netting, was placed at the release end. The test nets were cut to 25×25 cm squares and fitted into cardboard frames that allow a 20×20 cm area to be exposed. […]
After 7 hours the mosquitoes were counted in each section of the tunnel. The number of mosquitoes knocked down and blood fed were recorded. Blood-feeding inhibition was assessed by comparing the proportion of blood-fed females (alive or dead) in treated and control tests. […]

[9] = tested on: non-blood fed adult female mosquitoes; assay: Bottle assay based on the CDC bottle assay (B21, B22); conditions: Table B21; rate not given
Method: Based on the “CDC bottle assay” (described at http://www.cdc.gov/malaria/resources/pdf/fsp/ir_manual/ir_cdc_bioassay_en.pdf) 1 ml of ethanol containing a test compound at a defined concentration was added to a 250 ml glass bottle and the bottles were placed on a rolling table to coat the inner surfaces as the solvent evaporated. Once dry, twenty five non-blood fed adult female mosquitoes of the appropriate species and strains (each three day old) were aspirated from the stock culture and gently blown into the exposure bottles. The lid of the bottle was replaced and the bottle placed upright out of direct sun light under standard culture conditions, nominally 28° C. and 60-80% relative humidity.
A stopwatch was started, and the assessment of the knock-down were made after 15 mins and 60 minutes. A mosquito was said to be knocked down if it was unable to stand, following the CDC definition. The bottles were replaced in an upright position when not being assessed.
After one hour the mosquitoes were carefully removed from the bottle with an aspirator and placed in a recovery cup. The mosquitoes were supplied with a 10% sucrose solution on a cotton wool bung, and stored under culture conditions. Assessments of the mortality were made after 24 hours and 48 hours (B21).
Each treatment was replicated a minimum of four times, with the mean knockdown or mortality recorded. In each study, a set of bottles was infested with a known insecticide susceptible strain of mosquitoes from the same genera as the resistant strains.

Anopheles stephensi [10] = assay: six well tissue culture plate deposit test, knockdown and mortality (Examples B1-B10); conditions: for 24 hr mort / 48 hr mort / KD: Table B4, alone or +Comp. (1.3); for KD: knockdown after 1 hour; for knockdown after 1 hour: Alone or Plus Compound (1.3)
Method: The individual wells of six (6) well tissue culture plates were treated with 250 μl of an ethanol solution containing a test compound at a defined concentration. Once the deposits were dry, ten non-blood fed adult female Anopheles stephensi (between two to five day old) were added to each well, and sustained with a 10% sucrose solution in a cotton wool plug. Assessment of the knockdown after 1 hour (Tables B1-B10), and mortality after 24 and 48 hours (Tables B1-B4) was carried out.
In case of multiple tests, the mean value is reported.

[11] = Table B12, Deltamethrin 5 mg/m2

## FC(F)(F)c1ccncc1-c1noc(-c2cccc(Cl)c2)n1 [Compound 1.1]
Aedes aegypti; Rate 0.2 PPM
  pest or weed control at 0.2 ppm: 100%
Aedes aegypti; Rate 2 PPM
  pest or weed control at 2 ppm: 100%
Aedes aegypti; Rate 20 PPM
  pest or weed control at 20 ppm: 100%
Aedes aegypti; Rate 200 PPM
  pest or weed control at 200 ppm: 100%
Anopheles stephensi [1]; Rate 0.2 PPM
  pest or weed control at 0.2 ppm: 40%
Anopheles stephensi [1]; Rate 2 PPM
  pest or weed control at 2 ppm: 100%
Anopheles stephensi [1]; Rate 20 PPM
  pest or weed control at 20 ppm: 100%
Anopheles stephensi [1]; Rate 200 PPM
  pest or weed control at 200 ppm: 100%

## NC(=O)c1cnccc1C(F)(F)F [Compound 1.3]
[2]; 50 mg/m2
  % Blood fed: 3.3%
  Blood fed: 10
[2]; 200 mg/m2
  % Blood fed: 1.5%
  Blood fed: 6
Anopheles gambiae Kisumu [3]; 50 mg/m2
  % Blood fed: 25.0%
  Blood fed: 70
Anopheles gambiae Kisumu [3]; 200 mg/m2
  % Blood fed: 23.1%
  Blood fed: 74
Anopheles stephensi [4]; Table B11, treated net, Rate 10 mg/m2
  % Blood fed: 3%
Anopheles gambiae Kisumu [5]; 50 mg/m2
  % Blood fed: 1.5%
  Blood fed: 5
Anopheles gambiae Kisumu [5]; 200 mg/m2
  % Blood fed: 0.3%
  Blood fed: 1
[6]; 50 mg/m2
  % Blood fed: 24.5%
  Blood fed: 66
[6]; 200 mg/m2
  % Blood fed: 3.3%
  Blood fed: 10
[7]; 50 mg/m2
  % Blood fed: 1.3%
  Blood fed: 4
[7]; 200 mg/m2
  % Blood fed: 1.8%
  Blood fed: 6
[8]; Compound (1.3) 25 mg/m2
  % Blood fed: 0.3%

## CC1(C)[C@H](C(=O)O[C@H](C#N)c2cccc(Oc3ccccc3)c2)[C@@H]1C=C(Br)Br [Deltamethrin]
Anopheles stephensi [4]; [11]
  % 1 hour KD: 0%
  % Blood fed: 0%

## N#CCNC(=O)c1cnccc1C(F)(F)F [Flonicamid]
[9]
  24 hour % mort: 0%
  48 hour % mort: 0%
  % 1 hour KD: 0%

## COC(=O)N(C(=O)N1CO[C@@]2(C(=O)OC)Cc3cc(Cl)ccc3C2=N1)c1ccc(OC(F)(F)F)cc1 [Indoxacarb]
Anopheles stephensi [4]; Table B14, Indoxacarb 20 mg/m2
  % 24 hour mortality: 7.6%
[8]; Indoxacarb 200 mg/m2
  % Blood fed: 4.4%
Anopheles stephensi [10]; Rate 12.5 ppm
  24 hr mort: 0.0
  48 hr mort: 0.0
  KD: 0.0
Anopheles stephensi [10]; Rate 25 ppm
  24 hr mort: 0.0
  48 hr mort: 0.0
  KD: 0.0
Anopheles stephensi [10]; Rate 50 ppm
  24 hr mort: 0.0
  48 hr mort: 0.0
  KD: 0.0
Anopheles stephensi [10]; Rate 100 ppm
  24 hr mort: 0.0
  48 hr mort: 0.0
  KD: 0.0
Anopheles stephensi [10]; Table B7, Rate 25 ppm
  knockdown after 1 hour: 0
Anopheles stephensi [10]; Table B7, Rate 50 ppm
  knockdown after 1 hour: 0
Anopheles stephensi [10]; Table B7, Rate 100 ppm
  knockdown after 1 hour: 0
Anopheles stephensi [10]; Table B7, Rate 200 ppm
  knockdown after 1 hour: 0

## CCN(CC)c1nc(C)cc(OP(=S)(OC)OC)n1 [pirimiphos-methyl]
Anopheles stephensi [10]; Table B10, Rate 0.0625 ppm
  knockdown after 1 hour: 0.0
Anopheles stephensi [10]; Table B10, Rate 0.125 ppm
  knockdown after 1 hour: 0.0
